These results are taken from patent US11045448B2, “Piperidines as covalent menin inhibitors” (THE REGENTS OF THE UNIVERSITY OF MICHIGAN, priority 2017, dated 2021).

Where two headings read alike, the source gives them in different places.

Experiment [1] concerns the target T1, menin protein (Homo sapiens (Human), UniProt O00255). The experiment can be described thus: Fluorescence polarization (FP) competitive binding assay, menin binding affinity. The settings on record: menin protein 4 nM, probe 2 nM, room temperature 30 minutes. As to the method: A fluorescence polarization (FP) competitive binding assay was used to determine the binding affinities of representative menin inhibitors. A FAM labeled fluorescent probe was designed and synthesized based on a MLL1 peptide (FAM-MM2). Equilibrium dissociation constant (Kd) value of FAM-MM2 to menin protein was determined from protein saturation experiments by monitoring the total fluorescence polarization of mixtures composed with the fluorescent probe at a fixed concentration and the protein with increasing concentrations up to full saturation. Serial dilutions of the protein were mixed with FAM-MM2 to a final volume of 200 μl in the assay buffer (PBS with 0.02% Bovine γ-Globulin and 4% DMSO. 0.01% Triton X-100 was added right before assays). Final FAM-MM2 concentration was 2 nM. Plates were incubated at room temperature for 30 minutes with gentle shaking to assure equilibrium. FP values in millipolarization units (mP) were measured using the Infinite M-1000 plate reader (Tecan U.S., Research Triangle Park, N.C.) in Microfluor 1 96-well, black, v-bottom plates (Thermo Scientific, Waltham, Mass.) at an excitation wavelength of 485 nm and an emission wavelength of 530 nm.
The IC50, see Table 3, of representative Compounds of the Disclosure were determined in a competitive binding experiment. Mixtures of 5 μl of the tested compounds in DMSO and 195 μl of preincubated protein/probe complex solution in the assay buffer were added into assay plates which were incubated at room temperature for 30 minutes with gentle shaking. Final concentration of the menin protein was 4 nM, and final probe concentration is 2 nM. Negative controls containing protein/probe complex only (equivalent to 0% inhibition), and positive controls containing only free probes (equivalent to 100% inhibition), were included in each assay plate. FP values were measured as described above. IC50 values were determined by nonlinear regression fitting of the competition curves.
In general terms: Fluorescence polarisation rises when a labelled molecule tumbles more slowly, as on binding a larger partner.

The target of experiment [2] is T1, menin protein. The experiment can be described thus: Covalent binding to menin protein by mass spectroscopy. The settings on record: incubated with recombinant human menin, compared to menin apo. How it is done:
No. 1 and Cpd. […] Recombinant human menin protein was incubated with Cpd. No. 1 or Cpd. No. 3 and compared to menin protein alone (Menin apo).

For a further experiment, the system named is MV4-11. Nature of the experiment: 7-day proliferation assay (WST-8), MV4-11. Format: cell-based. Particulars: Homo sapiens, 168 h, 7 days, read-out: IC50 in cell growth inhibition. How it is done: (§1) The effect of representative Compounds of the Disclosure on cell viability was determined in a 7-day proliferation assay. Cells were maintained in the appropriate culture medium with 10% FBS at 37° C. and an atmosphere of 5% CO2.
(§2) Cells were seeded in 96-well flat bottom (Corning COSTAR, Corning, N.Y., cat #3595) at a density of 2,000-3,000 cells/well in 100 μl of culture medium. Compounds were serially diluted in the appropriate medium, and 100 μl of the diluted compounds were added to the appropriate wells of the cell plate. After the addition of compounds, the cells were incubated at 37° C. in an atmosphere of 5% CO2 for 7 days. Cell viability was determined using the WST (2-(2-methoxy-4-nitrophenyl)-3-(4-nitrophenyl)-5-(2,4-disulfophenyl)-2H-tetrazolium, monosodium salt) Cell Counting-8 Kit (Dojindo Molecular Technologies, Inc., Rockville, Md.) according to the manufacturers' instructions.
(§3) WST-8 reagent was added to each well at a final concentration of 10% (v/v), and then the plates were incubated at 37° C. for 1-2 hours for color development. The absorbance was measured at 450 nm using a SPECTRAmax PLUS plate reader (Molecular Devices, Sunnyvale, Calif.). The readings were normalized to the DMSO-treated cells and the half maximal inhibitory concentration (IC50) was calculated by nonlinear regression (four parameters sigmoid fitted with variable slope, least squares fit, and no constraint) analysis using the GraphPad Prism 5 software (GraphPad Software, La Jolla, Calif.).
In general terms: Formazan colour is commonly taken as a measure of viable cells.

The test system of another experiment is MOLM13. Nature of the experiment: 7-day proliferation assay (WST-8), MOLM13. Format: cell-based. Particulars: Homo sapiens, MOLM-13, 168 h, 7 days, read-out: IC50 in cell growth inhibition. How it is done:
as §1, §2, §3

The next experiment concerns MOLM14. Nature of the experiment: 7-day proliferation assay (WST-8), MOLM14. It is filed as cell-based. The settings on record: Homo sapiens, MOLM-14, 168 h; Table 4; MOLM14, AML, MLL/AF9; 7 days; read-out: IC50 in cell growth inhibition. As to the method:
as §1, §2, §3

The next experiment has as its system SEM cells. Nature of the experiment: 7-day proliferation assay (WST-8), SEM. Format: cell-based. The settings on record: MLL-AF9, 168 h; Table 4; 7 days; read-out: IC50 in cell growth inhibition. How it is done:
as §1, §2, §3

A further experiment relates to MonoMac6. The experiment can be described thus: 7-day proliferation assay (WST-8), MonoMac6. It is filed as cell-based. The settings on record: Homo sapiens, MONO-MAC-6, 168 h; Table 4; MonoMac6, AML, MLL/AF9; 7 days; read-out: IC50 in cell growth inhibition. As to the method:
as §1, §2, §3

The next experiment relates to RS4-11. The experiment can be described thus: 7-day proliferation assay (WST-8), RS4-11. Format: cell-based. The settings on record: Homo sapiens, 168 h; Table 4; RS4-11, B-lineage ALL, MLL/AF4; 7 days; read-out: IC50 in cell growth inhibition. How it is done:
as §1, §2, §3

T1 sequence (O00255 whole entry): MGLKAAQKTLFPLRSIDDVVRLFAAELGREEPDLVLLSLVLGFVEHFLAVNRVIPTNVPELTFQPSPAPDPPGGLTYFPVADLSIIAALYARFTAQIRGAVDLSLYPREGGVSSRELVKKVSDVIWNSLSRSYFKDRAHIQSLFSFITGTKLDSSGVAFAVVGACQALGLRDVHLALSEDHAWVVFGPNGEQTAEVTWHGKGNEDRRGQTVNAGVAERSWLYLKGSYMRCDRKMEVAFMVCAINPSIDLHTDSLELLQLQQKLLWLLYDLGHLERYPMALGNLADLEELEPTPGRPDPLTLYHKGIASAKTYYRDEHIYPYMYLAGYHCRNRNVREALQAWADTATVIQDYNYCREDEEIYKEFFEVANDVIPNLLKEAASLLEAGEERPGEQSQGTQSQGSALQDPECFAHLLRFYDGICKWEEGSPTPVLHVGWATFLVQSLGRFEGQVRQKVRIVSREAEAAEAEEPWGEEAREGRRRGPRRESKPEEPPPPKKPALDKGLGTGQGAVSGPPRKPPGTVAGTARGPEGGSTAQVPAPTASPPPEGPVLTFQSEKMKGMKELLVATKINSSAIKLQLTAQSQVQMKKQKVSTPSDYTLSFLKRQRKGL

On to `C=CC(=O)Nc1cccc(S(=O)(=O)c2ccc(N3CC(CN4CCC([C@@](C#N)(c5cccc(F)c5)[C@H]5CCC[C@@H]5OC(=O)NC)CC4)C3)cc2)c1` [Cpd. No. 3, (1S,2R)-2-((S)-(1-((1-(4-((3-acrylamidophenyl)sulfonyl)phenyl)azetidin-3-yl)methyl)piperidin-4-yl)(cyano)(3-fluorophenyl)methyl)cyclopentyl methylcarbamate], for which, on menin protein [1], the IC50 (commonly the concentration needed to halve the response being measured) is 3 nM. Also, the “Covalent binding with menin protein (mass spectroscopy)” value on menin protein [2] is reported as “covalently bind with menin protein”.

For the compound `C=CC(=O)N1CC(S(=O)(=O)c2ccc(N3CC(CN4CCC([C@@](C#N)(c5cccc(F)c5)[C@H]5CCC[C@@H]5NC(=O)OC)CC4)C3)cc2)C1` [Cpd. No. 6, methyl ((1S,2R)-2-((S)-(1-((1-(4-((1-acryloylazetidin-3-yl)sulfonyl)phenyl)azetidin-3-yl)methyl)piperidin-4-yl)(cyano)(3-fluorophenyl)methyl)cyclopentyl)carbamate], the 50% inhibitory concentration (IC50) on menin protein [1] was found to be 3 nM; with MV4-11 (Table 4, MV4-11, AML, MLL/AF4) it was 44.8 nM; in the experiment with MOLM13 (Table 4, MOLM13, AML, MLL/AF9) it was 154 nM; in the experiment on MOLM14, 180 nM; in the experiment on SEM cells, 79 nM; in the experiment with MonoMac6 it was 764 nM. Moreover, the IC50 in the experiment on RS4-11 turned out to be 62.1 nM.

With `C=CC(=O)N1CCCC(S(=O)(=O)c2ccc(N3CC(CN4CCC([C@@](C#N)(c5cccc(F)c5)[C@H]5CCC[C@@H]5NC(=O)OC)CC4)C3)cc2)C1` (stereo partly drawn) [Cpd. No. 78, methyl ((1S,2R)-2-((1S)-(1-((1-(4-((1-acryloylpiperidin-3-yl)sulfonyl)phenyl)azetidin-3-yl)methyl)piperidin-4-yl)(cyano)(3-fluorophenyl)methyl)cyclopentyl)carbamate], the IC50 at menin protein [1] is 10 nM; in the experiment with MV4-11 (Table 5, MV4-11) it was 65 nM; in the experiment on MOLM13 (Table 5, MOLM13), 291 nM.

As to `CCc1nccn1C[C@@](c1cccc(F)c1)(C1CCN(CC2CN(c3ccc(S(=O)(=O)C4CN(C(=O)/C=C/CN5CCCCC5)C4)cc3)C2)CC1)[C@H]1CCC[C@@H]1NC(=O)OC` [Cpd. No. 73, methyl ((1S,2R)-2-((S)-2-(2-ethyl-1H-imidazol-1-yl)-1-(3-fluorophenyl)-1-(1-((1-(4-((1-((E)-4-(piperidin-1-yl)but-2-enoyl)azetidin-3-yl)sulfonyl)phenyl)azetidin-3-yl)methyl)piperidin-4-yl)ethyl)cyclopentyl)carbamate], the IC50 at menin protein [1] stood at 2 nM; in the experiment on MV4-11 (Table 5, MV4-11) it was 0.1 nM; in the experiment on MOLM13 (Table 5, MOLM13), 6 nM.

Consider `C=CC(=O)N1CC(S(=O)(=O)c2ccc(N3CC(CN4CCC([C@@](C#N)(c5cccc(F)c5)[C@H]5CCC[C@@H]5OC(=O)NC)CC4)C3)cc2)C1` [Cpd. No. 1, (1S,2R)-2-((S)-(1-((1-(4-((1-acryloylazetidin-3-yl)sulfonyl)phenyl)azetidin-3-yl)methyl)piperidin-4-yl)(cyano)(3-fluorophenyl)methyl)cyclopentyl methylcarbamate], for which the IC50 at menin protein [1] is 5 nM; in the experiment on MV4-11 (Table 4, MV4-11, AML, MLL/AF4), 4.3 nM; with MOLM13 (Table 4, MOLM13, AML, MLL/AF9) it was 27.2 nM; in the experiment with MOLM14 it was 41 nM; with SEM cells it was 10.9 nM; in the experiment with MonoMac6, 84 nM. For the same compound, the IC50 with RS4-11 was 8.8 nM. At menin protein [2], the “Covalent binding with menin protein (mass spectroscopy)” value was “covalently bind with menin protein”.

As for `N#C[C@@](c1cccc(F)c1)(C1CCN(CC2CN(c3ccc(S(=O)(=O)C4CC4)cc3)C2)CC1)[C@H]1CCC[C@@H]1NC(=O)CCl` [Cpd. No. 76, 2-chloro-N-((1S,2R)-2-((S)-cyano(1-((1-(4-(cyclopropylsulfonyl)phenyl)azetidin-3-yl)methyl)piperidin-4-yl)(3-fluorophenyl)methyl)cyclopentyl)acetamide], the IC50 on menin protein [1] was 5 nM; in the experiment with MV4-11 (Table 5, MV4-11) it was 117 nM; with MOLM13 (Table 5, MOLM13) it was 313 nM.

Consider `C=CC(=O)Nc1cccc(S(=O)(=O)c2ccc(N3CC(CN4CCC([C@@](Cn5ccnc5CC)(c5cccc(F)c5)[C@H]5CCC[C@@H]5NC(=O)OC)CC4)C3)cc2)c1` [Cpd. No. 7, methyl ((1S,2R)-2-((S)-1-(1-((1-(4-((3-acrylamidophenyl)sulfonyl)phenyl)azetidin-3-yl)methyl)piperidin-4-yl)-2-(2-ethyl-1H-imidazol-1-yl)-1-(3-fluorophenyl)ethyl)cyclopentyl)carbamate], for which the IC50 was determined as 3 nM on menin protein [1]; 2.2 nM in the experiment on MV4-11 (Table 4, MV4-11, AML, MLL/AF4); 16.9 nM with MOLM13 (Table 4, MOLM13, AML, MLL/AF9); 17.6 nM in the experiment with MOLM14; 4.7 nM with SEM cells; 67.7 nM in the experiment with MonoMac6. Besides, the IC50 with RS4-11 turned out to be 5.9 nM.

Take `C=CC(=O)Nc1cccc(S(=O)(=O)c2ccc(N3CC(CN4CCC([C@@](C#N)(c5cccc(F)c5)[C@H]5CCC[C@@H]5NC(=O)OC)CC4)C3)cc2)c1` [Cpd. No. 5, methyl ((1S,2R)-2-((S)-(1-((1-(4-((3-acrylamidophenyl)sulfonyl)phenyl)azetidin-3-yl)methyl)piperidin-4-yl)(cyano)(3-fluorophenyl)methyl)cyclopentyl)carbamate]: the IC50 stood at 2 nM at menin protein [1]; 8.3 nM with MV4-11 (Table 4, MV4-11, AML, MLL/AF4); 41.4 nM with MOLM13 (Table 4, MOLM13, AML, MLL/AF9); 78.8 nM in the experiment with MOLM14; 39.6 nM in the experiment with SEM cells; 156 nM in the experiment with MonoMac6. In the experiment on RS4-11, the IC50 was found to be 10.7 nM.

Regarding `CCc1nccn1C[C@@](c1cccc(F)c1)(C1CCN(CC2CN(c3ccc(S(=O)(=O)C4CN(C(=O)/C=C/CN(C)C)C4)cc3)C2)CC1)[C@H]1CCC[C@@H]1NC(=O)OC` [Cpd. No. 67, methyl ((1S,2R)-2-((S)-1-(1-((1-(4-((1-((E)-4-(dimethylamino)but-2-enoyl)azetidin-3-yl)sulfonyl)phenyl)azetidin-3-yl)methyl)piperidin-4-yl)-2-(2-ethyl-1H-imidazol-1-yl)-1-(3-fluorophenyl)ethyl)cyclopentyl)carbamate], the IC50 at menin protein [1] amounted to 2 nM; in the experiment with MV4-11 (Table 5, MV4-11), 6 nM; in the experiment on MOLM13 (Table 5, MOLM13) it was 31 nM.

For `COC(=O)N[C@H]1CCC[C@@H]1[C@](Cn1ccnn1)(c1cccc(F)c1)C1CCN(CC2CN(c3ccc(S(=O)(=O)C4CN(C(=O)/C=C/CN(C)C)C4)cc3)C2)CC1` [Cpd. No. 72, methyl ((1S,2R)-2-((S)-1-(1-((1-(4-((1-((E)-4-(dimethylamino)but-2-enoyl)azetidin-3-yl)sulfonyl)phenyl)azetidin-3-yl)methyl)piperidin-4-yl)-1-(3-fluorophenyl)-2-(1H-1,2,3-triazol-1-yl)ethyl)cyclopentyl)carbamate], the IC50 at menin protein [1] was found to be 2 nM; in the experiment on MV4-11 (Table 5, MV4-11), 1 nM; in the experiment on MOLM13 (Table 5, MOLM13) it was 22 nM.
